This test addresses HPK full length, T165E S171E (Homo sapiens (Human), UniProt Q92918, S171E/T165E). Kind of test: HPK1-FL HTRF enzymatic assay ("HTRF"). Format: biochemical. The conditions noted are these: ATP 1 mM. The procedure, abridged: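 HTRF detection of phosphorylated biotin-SLP-76 used Eu-anti-pSLP76 antibody and SA-XL665, read after 60 min. The kinase reaction ran 60 min at […], following a 30-min compound preincubation with the full-length enzyme.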
For orientation: TR-FRET usually uses a lanthanide donor and a delayed reading to cut background.

Where a name gives a salt, the structure may show the parent alone. Read-outs that look alike come from different tables or passages of the source.

Sequence of HPK full length, T165E S171E (Q92918 whole entry T165E/S171E, looked up): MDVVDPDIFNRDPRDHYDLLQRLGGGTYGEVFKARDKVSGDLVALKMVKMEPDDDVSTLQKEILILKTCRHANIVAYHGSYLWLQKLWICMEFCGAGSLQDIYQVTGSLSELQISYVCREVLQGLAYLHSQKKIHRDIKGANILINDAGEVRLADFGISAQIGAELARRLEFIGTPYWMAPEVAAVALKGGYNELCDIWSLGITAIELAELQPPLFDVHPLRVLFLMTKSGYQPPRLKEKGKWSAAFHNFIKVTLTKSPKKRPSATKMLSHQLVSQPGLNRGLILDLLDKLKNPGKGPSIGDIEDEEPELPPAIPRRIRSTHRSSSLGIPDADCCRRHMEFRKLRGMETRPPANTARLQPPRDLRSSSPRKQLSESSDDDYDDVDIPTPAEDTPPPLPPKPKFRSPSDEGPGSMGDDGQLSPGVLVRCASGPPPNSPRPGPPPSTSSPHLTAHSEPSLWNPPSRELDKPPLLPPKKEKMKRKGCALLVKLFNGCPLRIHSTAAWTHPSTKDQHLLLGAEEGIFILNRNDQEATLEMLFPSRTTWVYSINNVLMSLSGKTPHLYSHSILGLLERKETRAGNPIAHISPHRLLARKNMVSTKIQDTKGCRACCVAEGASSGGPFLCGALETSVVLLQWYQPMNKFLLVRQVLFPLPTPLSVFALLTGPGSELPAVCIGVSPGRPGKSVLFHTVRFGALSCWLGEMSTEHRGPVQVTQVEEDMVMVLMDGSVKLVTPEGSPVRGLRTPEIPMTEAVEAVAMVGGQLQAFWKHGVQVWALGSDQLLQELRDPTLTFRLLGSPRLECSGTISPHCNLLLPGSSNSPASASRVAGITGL

As to `Cc1c(-c2cc3cc(NC(=O)O[C@@H]4[C@@H]5COC[C@@H]54)ncc3c(N)c2F)cnc2c1NCCO2` [Compound 543b, (1R,5S,6r)-3-oxabicyclo[3.1.0]hexan-6-yl (8-amino-7-fluoro-6-(8-methyl-2,3-dihydro-1H-pyrido[2,3-b][1,4]oxazin-7-yl)isoquinolin-3-yl)carbamate], the Ki – broadly, the dissociation constant of the complex between target and ligand, obtained from inhibition or displacement – (read-out: HPK1 Ki) worked out at 0.083 nM.

Take `CC[C@H]1COC[C@@H]1OC(=O)Nc1cc2cc(-c3cnc4c(c3C)NCCO4)c(F)c(N)c2cn1` (single isomer, unassigned) [Compound 515b]: the Ki (read-out: HPK1 Ki) stood at 0.017 nM.

On to `Cc1c(-c2cc3cc(NC(=O)O[C@@H]4CCOC4)ncc3c(N)c2F)cnc2c1NCC(CO)C2` (mixture of isomers) [Compound 581a, (R)-Tetrahydrofuran-3-yl (8-amino-7-fluoro-6-(7-(hydroxymethyl)-4-methyl-5,6,7,8-tetrahydro-1,5-naphthyridin-3-yl)isoquinolin-3-yl)carbamate], for which the Ki (read-out: HPK1 Ki) was 0.43 nM.

`CO[C@@H]1CC[C@@H](NC(=O)Nc2cc3cc(-c4cnc5c(c4C)NCCO5)c(F)c(N)c3cn2)C1` [Compound 730a, 1-(8-amino-7-fluoro-6-(8-methyl-2,3-dihydro-1H-pyrido[2,3-b][1,4]oxazin-7-yl)isoquinolin-3-yl)-3-((1R,3R)-3-methoxycyclopentyl)urea] displayed a Ki (HPK1 Ki) of under 0.013 nM.

Turning to `CO[C@H]1COC[C@H]1NC(=O)Nc1cc2cc(-c3cnc4c(c3C)NCCO4)c(F)c(N)c2cn1` (single isomer, unassigned) [Compound 723b], where the note is “read-out: HPK1 Ki”, the Ki worked out at 0.029 nM.

On to `Cc1c(-c2cc3cc(NC(=O)O[C@@H]4CCO[C@@H]4C)ncc3c(N)c2F)cnc2c1NCCO2` (single isomer, unassigned) [Compound 510d], for which, where the note is “read-out: HPK1 Ki”, the Ki came out at 0.016 nM.

As for `Cc1c(-c2cc3cc(NC(=O)O[C@H]4Cc5nccn5C4)ncc3c(N)c2F)cnc2c1NCCO2` (single isomer, unassigned) [Compound 504b], the Ki (read-out: HPK1 Ki) turned out to be 0.76 nM.

As for `Cc1c(-c2cc3cc(NC(=O)O[C@@H]4CCOC4)ncc3c(N)c2F)cnc2c1NC[C@H](F)O2` (single isomer, unassigned) [Compound 518b], the inhibition constant Ki (read-out: HPK1 Ki) was determined as 0.044 nM.

Regarding `Cc1c(-c2cc3cc(NC(=O)O[C@@H]4C[C@@](C)(O)[C@H]4C)ncc3c(N)c2F)cnc2c1NCCO2` [Compound 526d, (1R,2S,3R)-3-Hydroxy-2,3-dimethylcyclobutyl (8-amino-7-fluoro-6-(8-methyl-2,3-dihydro-1H-pyrido[2,3-b][1,4]oxazin-7-yl)isoquinolin-3-yl)carbamate], the Ki (read-out: HPK1 Ki) worked out at 0.018 nM.

Turning to `Cc1c(-c2cc3cc(NC(=O)OC(C)C)ncc3c(N)c2F)cnc2c1NCCO2` [Compound 436, Isopropyl (8-amino-7-fluoro-6-(8-methyl-2,3-dihydro-1H-pyrido[2,3-b][1,4]oxazin-7-yl)isoquinolin-3-yl)carbamate], the Ki (read-out: HPK1 Ki) was 0.014 nM.

With `Cc1c(-c2cc3cc(NC(=O)OCC4(F)CN(C)C4)ncc3c(N)c2F)cnc2c1NCCO2` [Compound 450, (3-Fluoro-1-methyl-azetidin-3-yl)methyl N-[8-amino-7-fluoro-6-(8-methyl-2,3-dihydro-1H-pyrido[2,3-b][1,4]oxazin-7-yl)-3-isoquinolyl]carbamate], the Ki (read-out: HPK1 Ki) was 0.13 nM.

In turn, `Cc1c(-c2cc3cc(NC(=O)O[C@@H]4CCOC4)ncc3c(N)c2F)cnc2c1[C@@H](O)CC2` [Compound 548a, (R)-tetrahydrofuran-3-yl (8-amino-7-fluoro-6-((S)-5-hydroxy-4-methyl-6,7-dihydro-5H-cyclopenta[b]pyridin-3-yl)isoquinolin-3-yl)carbamate] showed a Ki (HPK1 Ki) of 1.7 nM.

`Cc1c(-c2cc3cc(NC(=O)OC4CN(C)CCN(C)C4)ncc3c(N)c2F)cnc2c1NCCO2` [Compound 465, 1,4-Dimethyl-1,4-diazepan-6-yl (8-amino-7-fluoro-6-(8-methyl-2,3-dihydro-1H-pyrido[2,3-b][1,4]oxazin-7-yl)isoquinolin-3-yl)carbamate]: the Ki (read-out: HPK1 Ki) is 0.46 nM.

Take `Cc1c(-c2cc3cc(NC(=O)O[C@@H]4CC[C@@H]4C)ncc3c(N)c2F)cnc2c1NCCO2` (single isomer, unassigned) [Compound 559a]: the inhibitory constant (Ki) (read-out: HPK1 Ki) amounted to 0.025 nM.

Take `Cc1c(-c2cc3cc(NC(=O)O[C@H]4[C@@H]5COC[C@@H]54)ncc3c(N)c2F)cnc2c1NCCO2` [Compound 543a, (1R,5S,6s)-3-oxabicyclo[3.1.0]hexan-6-yl (8-amino-7-fluoro-6-(8-methyl-2,3-dihydro-1H-pyrido[2,3-b][1,4]oxazin-7-yl)isoquinolin-3-yl)carbamate]: the Ki (read-out: HPK1 Ki) was under 0.013 nM.

For the compound `Cc1c(-c2cc3cc(NC(=O)O[C@@H]4CC(=O)N(C)C4)ncc3c(N)c2F)cnc2c1NCCO2` (single isomer, unassigned) [Compound 410b], the Ki (read-out: HPK1 Ki) was determined as 0.029 nM.

With `Cc1c(-c2cc3cc(NC(=O)NC4CC4)ncc3c(N)c2F)cnc2c1NCCO2` [Compound 702, 1-(8-Amino-7-fluoro-6-(8-methyl-2,3-dihydro-1H-pyrido[2,3-b][1,4]oxazin-7-yl)isoquinolin-3-yl)-3-cyclopropylurea], the Ki (read-out: HPK1 Ki) is under 0.013 nM.

Consider `Cc1c(-c2cc3cc(NC(=O)O[C@H]4CC[C@H]4C)ncc3c(N)c2F)cnc2c1NCCO2` [Compound 559d, [(1S,2R)-2-methylcyclobutyl]N-[8-amino-7-fluoro-6-(8-methyl-2,3-dihydro-1H-pyrido[2,3-b][1,4]oxazin-7-yl)-3-isoquinolyl]carbamate], for which the Ki (read-out: HPK1 Ki) is under 0.013 nM.

As for `Cc1c(-c2cc3cc(NC(=O)O[C@@H]4CCN(C)C4)ncc3c(N)c2F)cnc2c1NCCO2` [Compound 411b, (R)-1-Methylpyrrolidin-3-yl (8-amino-7-fluoro-6-(8-methyl-2,3-dihydro-1H-pyrido[2,3-b][1,4]oxazin-7-yl)isoquinolin-3-yl)carbamate], the inhibitory constant (Ki) (read-out: HPK1 Ki) is 0.2 nM.

As to `Cc1c(-c2cc3cc(NC(=O)O[C@@H]4C[C@](C)(O)[C@@H]4C)ncc3c(N)c2F)cnc2c1NCCO2` [Compound 526a, (1R,2R,3S)-3-Hydroxy-2,3-dimethylcyclobutyl (8-amino-7-fluoro-6-(8-methyl-2,3-dihydro-1H-pyrido[2,3-b][1,4]oxazin-7-yl)isoquinolin-3-yl)carbamate], the Ki (read-out: HPK1 Ki) was determined as 0.015 nM.

As for `CC(=O)N1CC(OC(=O)Nc2cc3cc(-c4cnc5c(c4C)NCCO5)c(F)c(N)c3cn2)C1` [Compound 426, (1-Acetylazetidin-3-yl) N-[8-amino-7-fluoro-6-(8-methyl-2,3-dihydro-1H-pyrido[2,3-b][1,4]oxazin-7-yl)-3-isoquinolyl]carbamate], the Ki (read-out: HPK1 Ki) was under 0.013 nM.

As to `Cc1c(-c2cc3cc(NC(=O)O[C@H]4C[C@@H](N5CC(F)C5)C4)ncc3c(N)c2F)cnc2c1NCCO2` [Compound 525a, (1s,3s)-3-(3-Fluoroazetidin-1-yl)cyclobutyl (8-amino-7-fluoro-6-(8-methyl-2,3-dihydro-1H-pyrido[2,3-b][1,4]oxazin-7-yl)isoquinolin-3-yl)carbamate], the Ki (read-out: HPK1 Ki) is under 0.013 nM.

Take `Cc1c(-c2cc(N)c3cnc(NC(=O)O[C@@H]4COC[C@H]4C)cc3c2)cnc2c1NCCO2` (single isomer, unassigned) [Compound 556b, hydrochloride]: under “read-out: HPK1 Ki”, the inhibitory constant (Ki) was under 0.013 nM.

For `CN[C@@H]1CCCC[C@H]1OC(=O)Nc1cc2cc(-c3cnc4c(c3C)NCCO4)c(F)c(N)c2cn1` (single isomer, unassigned) [Compound 415b], the Ki (read-out: HPK1 Ki) was 16 nM.

Regarding `Cc1c(-c2cc3cc(NC(=O)O[C@@H]4CC[C@@H]4C)ncc3c(N)c2F)cnc2c1NCCO2` (single isomer, unassigned) [Compound 559c], the inhibition constant (Ki) (read-out: HPK1 Ki) is under 0.013 nM.

Regarding `Cc1c(-c2cc3cc(NC(=O)O[C@H]4COC[C@@H]4C)ncc3c(N)c2F)cnc2c1NC[C@@H](F)O2` (single isomer, unassigned) [Compound 567b], for the setting “read-out: HPK1 Ki”, the Ki worked out at 0.119 nM.

For the compound `CO[C@H]1COCC[C@H]1OC(=O)Nc1cc2cc(-c3cnc4c(c3C)NCCO4)c(F)c(N)c2cn1` (single isomer, unassigned) [Compound 583b], under “read-out: HPK1 Ki”, the Ki is 0.021 nM.

With `Cc1c(-c2cc3cc(NC(=O)O[C@@H]4CC[C@H]4C#N)ncc3c(N)c2F)cnc2c1NCCO2` [Compound 535b, (1R,2S)-2-Cyanocyclobutyl (8-amino-7-fluoro-6-(8-methyl-2,3-dihydro-1H-pyrido[2,3-b][1,4]oxazin-7-yl)isoquinolin-3-yl)carbamate], for the setting “read-out: HPK1 Ki”, the inhibitory constant (Ki) was 0.029 nM.

In the case of `Cc1c(-c2cc3cc(NC(=O)O[C@H]4C[C@@H](C(F)F)C4)ncc3c(N)c2F)cnc2c1NCCO2` [Compound 577a, (1s,3s)-3-(difluoromethyl)cyclobutyl (8-amino-7-fluoro-6-(8-methyl-2,3-dihydro-1H-pyrido[2,3-b][1,4]oxazin-7-yl)isoquinolin-3-yl)carbamate], the Ki (read-out: HPK1 Ki) was determined as 0.015 nM.

With `Cc1c(-c2cc3cc(NC(=O)OC4CCN(C)CC4(C)C)ncc3c(N)c2F)cnc2c1NCCO2` (stereo not drawn) [Compound 435, (1,3,3-Trimethyl-4-piperidyl) N-[8-amino-7-fluoro-6-(8-methyl-2,3-dihydro-1H-pyrido[2,3-b][1,4]oxazin-7-yl)-3-isoquinolyl]carbamate], the Ki (read-out: HPK1 Ki) was 0.187 nM.

For the setting “HPK1 Ki”, `Cc1c(-c2cc3cc(NC(=O)O[C@H]4CCN([C@@H]5CCOC5)C[C@H]4F)ncc3c(N)c2F)cnc2c1NCCO2` [Compound 569d, (3R,4S)-3-fluoro-1-((R)-tetrahydrofuran-3-yl)piperidin-4-yl (8-amino-7-fluoro-6-(8-methyl-2,3-dihydro-1H-pyrido[2,3-b][1,4]oxazin-7-yl)isoquinolin-3-yl)carbamate] displayed a Ki of 0.031 nM.

On to `Cc1c(-c2cc3cc(NC(=O)O[C@@H]4COCCN(C)C4)ncc3c(N)c2F)cnc2c1NCCO2` (single isomer, unassigned) [Compound 440b], for which the Ki (read-out: HPK1 Ki) was determined as 0.277 nM.

For the compound `CCc1c(-c2cc3cc(NC(=O)O[C@H]4CC(=O)N(C)C4)ncc3c(N)c2F)cnc2c1NCCO2` (single isomer, unassigned) [Compound 444b], the Ki (read-out: HPK1 Ki) was under 0.013 nM.

Values taken from patent US11612606B2, “8-aminoisoquinoline compounds and uses thereof” (priority 2018, dated 2023).
